Laboratory results from paper PMC7164518 (Science (New York, N.y.), 2020).
Values after ≈ are worked out from the molar mass of the structure shown. Read-outs that look alike come from different tables or passages of the source.

Key:
enteroviruses = conditions: various cell lines; cited from earlier work
[1] = test system: Middle East respiratory syndrome–coronavirus (MERS-CoV); conditions: Huh7 cells; read-out: EC50 against MERS-CoV; cited from earlier work
[2] = Binding to mouse plasma protein; assay type: in vitro ADME
[3] = In vitro kinetic plasma solubility; assay type: physicochemical; conditions: plasma or biological fluid, kinetic from dmso stock
[4] = Pharmacokinetics in CD-1 mice, subcutaneous route; assay type: in vivo; conditions: for half-life / Cmax / MRT: plasma
SARS-CoV = conditions: various cell lines; cited from earlier work
Thermodynamic solubility = assay type: physicochemical; conditions: thermodynamic from solid
[5] = human microsomes
in vitro [6] = conditions: mouse, microsomes
in vitro [7] = conditions: human, microsomes
SARS-CoV-2 = SARS-CoV-2 replication in human Calu-3 lung cells (viral RNA by qPCR); assay type: cell-based; conditions: MOI 0.05
Method: (A) Calu-3 cells were infected with SARS-CoV-2 using a multiplicity of infection (MOI) of 0.05. […] DMSO was used as vehicle control (black bar). Total RNA was isolated from cell lysates, and viral RNA content was analyzed by quantitative polymerase chain reaction. Data are means ± SD of two biological experiments with two technical replicates each.

MERS-CoV M^pro = MERS-CoV M^pro (Middle East respiratory syndrome-related coronavirus, UniProt K9N7C7); assay: biochemical
[8] = Binding to human plasma proteins; assay type: in vitro ADME
in vivo = conditions: CD-1, mouse, lung, inhaled, 3 mg kg^−1
SARS-CoV replicon = assay: microbe, parasite or virus in culture; assay type: cell-based; conditions: Severe acute respiratory syndrome coronavirus, read-out: EC50 inhibition of RNA replication in SARS-CoV replicon
SARS-CoV-2 M^pro = SARS-CoV-2 M^pro (Severe acute respiratory syndrome coronavirus 2, UniProt P0DTD1); assay: Inhibition of purified recombinant SARS-CoV-2 Mpro; assay type: biochemical; conditions: 14b relative to 13b

Chain of MERS-CoV M^pro (K9N7C7 3248-3553 limits assumed): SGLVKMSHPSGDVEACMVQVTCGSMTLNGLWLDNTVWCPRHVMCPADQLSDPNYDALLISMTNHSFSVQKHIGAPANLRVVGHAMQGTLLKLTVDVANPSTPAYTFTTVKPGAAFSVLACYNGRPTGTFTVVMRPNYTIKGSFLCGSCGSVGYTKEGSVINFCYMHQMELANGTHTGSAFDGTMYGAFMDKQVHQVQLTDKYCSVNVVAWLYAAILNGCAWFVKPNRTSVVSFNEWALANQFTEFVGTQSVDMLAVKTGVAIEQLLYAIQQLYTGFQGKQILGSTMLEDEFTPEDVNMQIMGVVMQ

Which “EC50 values against a whole range of enteroviruses” value (enteroviruses) does the source give for O=C(/C=C/c1ccccc1)N[C@@H](CC1CCCCC1)C(=O)N[C@@H](C[C@@H]1CCNC1=O)C(=O)C(=O)NCc1ccccc1 [Compound 11r, reference compound] here?
Its value is “low-μM”.

And the EC50 [1]?
Its EC50 is 0.0004 µM.

And the “binding to mouse plasma protein” value [2]?
Its value is 99%.

What about the solubility kinetic [3] of the same molecule?
Its solubility kinetic is 6 µM (≈ 3.44 µg/mL).

What about the half-life ([4]; CD-1, mouse, mice) of the same molecule?
The half-life was 0.3 h.

And the “EC50 values against SARS-CoV” value (SARS-CoV)?
Its value is “low-μM”.

And the solubility thermodynamic (Thermodynamic solubility)?
Its solubility thermodynamic is 41 µM (≈ 23.5 µg/mL).

Which results are given for CC(C)(C)OC(=O)Nc1cccn([C@@H](CC2CCCCC2)C(=O)N[C@@H](C[C@@H]2CCNC2=O)C(=O)C(=O)NC2CC2)c1=O [Compound 13a, tert-butyl (1-((S)-3-cyclohexyl-1-(((S)-4-(cyclopropylamino)-3,4-dioxo-1-((S)-2-oxopyrrolidin-3-yl)butan-2-yl)amino)-1-oxopropan-2-yl)-2-oxo-1,2-dihydropyridin-3-yl)carbamate]?
binding to mouse plasma protein [2]: 97%; solubility kinetic [3]: 112 µM (≈ 65.6 µg/mL); half-life ([4]; CD-1, mouse, mice): 1 h; time compound stayed in plasma ([4]; CD-1 mice, 20 mg/kg): up to 4 hours; time compound was excreted via urine ([4]; CD-1 mice, 20 mg/kg): up to 24 hours; concentration at 24 hours ([4]; mouse, bronchio-alveolar lavage fluid (BALF), sc, CD-1 mice, 20 mg/kg, read-out: concentration in bronchio-alveolar lavage fluid (BALF) at 24 hours): 52.7 ng/mL; concentration at 24 hours ([4]; mouse, lung, sc, CD-1 mice, 20 mg/kg, read-out: concentration in lung tissue at 24 hours): 135 ng/g; Cmax ([4]; mouse, sc, CD-1 mice, 20 mg/kg, read-out: maximum plasma concentration (Cmax)): 334 ng/mL; MRT ([4]; mouse, sc, CD-1 mice, 20 mg/kg, read-out: mean residence time): ~1.6 h; residual compound remaining metabolically stable after 30 min [5]: ~60%; microsomal CLint (in vitro [6]): 32 µL/min/mg; microsomal CLint (in vitro [7]): 21 µL/min/mg; solubility thermodynamic (Thermodynamic solubility): 530 µM (≈ 310 µg/mL)

Which results are given for CC(C)(C)OC(=O)Nc1cccn([C@@H](CC2CC2)C(=O)N[C@@H](C[C@@H]2CCNC2=O)C(=O)C(=O)NCc2ccccc2)c1=O [Compound 13b]?
EC50 (SARS-CoV-2; Severe acute respiratory syndrome coronavirus 2, Calu-3, viral RNA by qPCR, read-out: EC50 in human Calu-3 cells infected with SARS-CoV-2): 4 to 5 µM; IC50 (MERS-CoV M^pro): 0.58 ± 0.22 µM; Cmax as percent of the Cmax detected for 13a ([4]; 13b 3 mg kg^−1 vs 13a 20 mg/kg): around 37%; concentration at 4 hours ([4]; mouse, lung, sc, CD-1 mice, 3 mg kg^−1, 4 hours, read-out: lung tissue level after 4 hours): ~13 ng/g; half-life ([4]; mouse, sc, CD-1 mice, 3 mg kg^−1): 1.8 h; Cmax ([4]; mouse, sc, CD-1 mice, 3 mg kg^−1, read-out: maximum plasma concentration (Cmax)): 126 ng/mL; MRT ([4]; mouse, sc, CD-1 mice, 3 mg kg^−1, read-out: mean residence time): 2.7 h; binding to human plasma proteins [8]: 90%; concentration at 24 hours (in vivo): 33 ng/g; EC50 (SARS-CoV replicon): 1.75 ± 0.25 µM

Which “activity in human Calu-3 cells infected with SARS-CoV-2” value (SARS-CoV-2; 5, 10, 20 or 40 μM) does the source give for Nc1cccn([C@@H](CC2CC2)C(=O)N[C@@H](C[C@@H]2CCNC2=O)C(=O)C(=O)NCc2ccccc2)c1=O [Compound 14b] here?
The value was “almost inactive”.

And the “weakening of inhibitory potency on removing the Boc group (factor)” value (SARS-CoV-2 M^pro)?
Its value is ~ 2.
